Assay: xn = mol fraction of the nth substance listed

CCn1cc[n+](C)c1.COCCOCCOS(=O)(=O)[O-] + O
101 kPa
Settings | electrical conductivity [S/m]
298.2 K, x2 = 0.4 | 0.3
298.2 K, x2 = 0.6 | 0.51
313.2 K, x2 = 0.2 | 0.46
313.2 K, x2 = 0.8 | 1.63
328.2 K, x2 = 0.4 | 0.92
338.2 K, x2 = 0.2 | 1.05
338.2 K, x2 = 0.6 | 1.77
338.2 K, x2 = 0.8 | 2.97
343.2 K, x2 = 0.8 | 3.28
348.2 K, x2 = 0.2 | 1.36
348.2 K, x2 = 0.4 | 1.51
353.2 K, x2 = 0.6 | 2.39
353.2 K, x2 = 0.8 | 3.93

CCCCCC[N+](CC)(CC)CC.O=S(=O)([N-]S(=O)(=O)C(F)(F)F)C(F)(F)F + CC(C)O
100 kPa
Settings | viscosity [mPa·s]
293.15 K, x2 = 0.096 | 160
298.15 K, x2 = 0.2045 | 95.8
298.15 K, x2 = 0.3101 | 68.4
298.15 K, x2 = 0.4987 | 35.9
303.15 K, x2 = 0.3101 | 61.4
308.15 K, x2 = 0.4056 | 35.1
308.15 K, x2 = 0.4987 | 25.5
308.15 K, x2 = 0.5916 | 18
308.15 K, x2 = 0.8015 | 5.65
308.15 K, x2 = 0.9193 | 2.98
313.15 K, x2 = 0.096 | 69.9
313.15 K, x2 = 0.5916 | 16

CC#N + CCCC[P+](CC)(CCCC)CCCC.F[B-](F)(F)F
100 kPa, x2 = 0
Settings | viscosity [mPa·s]
293.15 K | 0.354
298.15 K | 0.338
303.15 K | 0.324
308.15 K | 0.31
313.15 K | 0.298
318.15 K | 0.286

CCCC[n+]1ccn(C)c1.O=S(=O)([N-]S(=O)(=O)C(F)(F)F)C(F)(F)F + CC1CC(=O)O1
100 kPa, frequency 0.01 MHz, x1 = 1
Settings | electrical conductivity [S/m]
293.15 K | 0.337
298.15 K | 0.4
303.15 K | 0.472
308.15 K | 0.552
313.15 K | 0.64
318.15 K | 0.733
323.15 K | 0.835

CC#N + CCCCCCCC(=O)[O-].c1c[nH+]c[nH]1
101.3 kPa, x1 = 1
Settings | viscosity [mPa·s]
298.15 K | 0.333
323.15 K | 0.223

CC[N+](CC)(CC)CC.F[B-](F)(F)F + CC#N
100 kPa
Settings | electrical conductivity [S/m] | viscosity [mPa·s]
293.15 K, x1 = 0.004202 | – | 0.42
293.15 K, x1 = 0.008244 | – | 0.438
293.15 K, x1 = 0.01214 | – | 0.455
293.15 K, x1 = 0.0162 | – | 0.474
293.15 K, x1 = 0.02 | 2.88 | –
293.15 K, x1 = 0.0201 | – | 0.484
293.15 K, x1 = 0.02405 | – | 0.506
293.15 K, x1 = 0.02791 | – | 0.531
293.15 K, x1 = 0.0301 | 3.6 | –
293.15 K, x1 = 0.03183 | – | 0.55
293.15 K, x1 = 0.03568 | – | 0.573
293.15 K, x1 = 0.03943 | – | 0.593
293.15 K, x1 = 0.0499 | 4.6 | –
293.15 K, x1 = 0.0698 | 5.04 | –
293.15 K, x1 = 0.08 | 5.32 | –
293.15 K, x1 = 0.1 | 5.56 | –
293.15 K, x1 = 0.1101 | 5.58 | –
298.15 K, x1 = 0.004202 | – | 0.401
298.15 K, x1 = 0.008244 | – | 0.417
298.15 K, x1 = 0.01214 | – | 0.435
298.15 K, x1 = 0.0162 | – | 0.452
298.15 K, x1 = 0.02 | 2.99 | –
298.15 K, x1 = 0.0201 | – | 0.46
298.15 K, x1 = 0.02405 | – | 0.48
298.15 K, x1 = 0.02791 | – | 0.507
298.15 K, x1 = 0.0301 | 3.65 | –
298.15 K, x1 = 0.03183 | – | 0.525
298.15 K, x1 = 0.03568 | – | 0.546
298.15 K, x1 = 0.03943 | – | 0.566
298.15 K, x1 = 0.0499 | 4.78 | –
298.15 K, x1 = 0.0698 | 5.24 | –
298.15 K, x1 = 0.08 | 5.59 | –
298.15 K, x1 = 0.1 | 5.85 | –
298.15 K, x1 = 0.1101 | 5.88 | –
303.15 K, x1 = 0.004202 | – | 0.383
303.15 K, x1 = 0.008244 | – | 0.399
303.15 K, x1 = 0.01214 | – | 0.415
303.15 K, x1 = 0.0162 | – | 0.432
303.15 K, x1 = 0.02 | 3.11 | –
303.15 K, x1 = 0.0201 | – | 0.438
303.15 K, x1 = 0.02405 | – | 0.457
303.15 K, x1 = 0.02791 | – | 0.484
303.15 K, x1 = 0.0301 | 3.74 | –
303.15 K, x1 = 0.03183 | – | 0.501
303.15 K, x1 = 0.03568 | – | 0.521
303.15 K, x1 = 0.03943 | – | 0.541
303.15 K, x1 = 0.0499 | 4.98 | –
303.15 K, x1 = 0.0698 | 5.48 | –
303.15 K, x1 = 0.08 | 5.85 | –
303.15 K, x1 = 0.1 | 6.14 | –
303.15 K, x1 = 0.1101 | 6.18 | –
308.15 K, x1 = 0.004202 | – | 0.367
308.15 K, x1 = 0.008244 | – | 0.381
308.15 K, x1 = 0.01214 | – | 0.397
308.15 K, x1 = 0.0162 | – | 0.413
308.15 K, x1 = 0.02 | 3.22 | –
308.15 K, x1 = 0.0201 | – | 0.419
308.15 K, x1 = 0.02405 | – | 0.436
308.15 K, x1 = 0.02791 | – | 0.463
308.15 K, x1 = 0.0301 | 3.88 | –
308.15 K, x1 = 0.03183 | – | 0.478
308.15 K, x1 = 0.03568 | – | 0.497
308.15 K, x1 = 0.03943 | – | 0.517
308.15 K, x1 = 0.0499 | 5.18 | –
308.15 K, x1 = 0.0698 | 5.71 | –
308.15 K, x1 = 0.08 | 6.11 | –
308.15 K, x1 = 0.1 | 6.43 | –
308.15 K, x1 = 0.1101 | 6.48 | –
313.15 K, x1 = 0.004202 | – | 0.352
313.15 K, x1 = 0.008244 | – | 0.365
313.15 K, x1 = 0.01214 | – | 0.381
313.15 K, x1 = 0.0162 | – | 0.396
313.15 K, x1 = 0.02 | 3.33 | –
313.15 K, x1 = 0.0201 | – | 0.4
313.15 K, x1 = 0.02405 | – | 0.417
313.15 K, x1 = 0.02791 | – | 0.442
313.15 K, x1 = 0.0301 | 4.03 | –
313.15 K, x1 = 0.03183 | – | 0.457
313.15 K, x1 = 0.03568 | – | 0.474
313.15 K, x1 = 0.03943 | – | 0.494
313.15 K, x1 = 0.0499 | 5.38 | –
313.15 K, x1 = 0.0698 | 5.95 | –
313.15 K, x1 = 0.08 | 6.36 | –
313.15 K, x1 = 0.1 | 6.72 | –
313.15 K, x1 = 0.1101 | 6.78 | –
318.15 K, x1 = 0.004202 | – | 0.338
318.15 K, x1 = 0.008244 | – | 0.35
318.15 K, x1 = 0.01214 | – | 0.365
318.15 K, x1 = 0.0162 | – | 0.38
318.15 K, x1 = 0.02 | 3.44 | –
318.15 K, x1 = 0.0201 | – | 0.383
318.15 K, x1 = 0.02405 | – | 0.399
318.15 K, x1 = 0.02791 | – | 0.423
318.15 K, x1 = 0.0301 | 4.17 | –
318.15 K, x1 = 0.03183 | – | 0.437
318.15 K, x1 = 0.03568 | – | 0.454
318.15 K, x1 = 0.03943 | – | 0.474
318.15 K, x1 = 0.0499 | 5.58 | –
318.15 K, x1 = 0.0698 | 6.18 | –
318.15 K, x1 = 0.08 | 6.59 | –
318.15 K, x1 = 0.1 | 7.01 | –
318.15 K, x1 = 0.1101 | 7.08 | –
323.15 K, x1 = 0.004202 | – | 0.326
323.15 K, x1 = 0.008244 | – | 0.337
323.15 K, x1 = 0.01214 | – | 0.35
323.15 K, x1 = 0.0162 | – | 0.364
323.15 K, x1 = 0.02 | 3.54 | –
323.15 K, x1 = 0.0201 | – | 0.367
323.15 K, x1 = 0.02405 | – | 0.383
323.15 K, x1 = 0.02791 | – | 0.405
323.15 K, x1 = 0.0301 | 4.32 | –
323.15 K, x1 = 0.03183 | – | 0.418
323.15 K, x1 = 0.03568 | – | 0.435
323.15 K, x1 = 0.03943 | – | 0.455
323.15 K, x1 = 0.0499 | 5.77 | –
323.15 K, x1 = 0.0698 | 6.41 | –
323.15 K, x1 = 0.08 | 6.84 | –
323.15 K, x1 = 0.1 | 7.27 | –
323.15 K, x1 = 0.1101 | 7.38 | –
328.15 K, x1 = 0.02 | 3.65 | –
328.15 K, x1 = 0.0301 | 4.46 | –
328.15 K, x1 = 0.0499 | 5.96 | –
328.15 K, x1 = 0.0698 | 6.63 | –
328.15 K, x1 = 0.08 | 7.08 | –
328.15 K, x1 = 0.1 | 7.56 | –
328.15 K, x1 = 0.1101 | 7.68 | –
333.15 K, x1 = 0.02 | 3.75 | –
333.15 K, x1 = 0.0301 | 4.59 | –
333.15 K, x1 = 0.0499 | 6.15 | –
333.15 K, x1 = 0.0698 | 6.86 | –
333.15 K, x1 = 0.08 | 7.33 | –
333.15 K, x1 = 0.1 | 7.83 | –
333.15 K, x1 = 0.1101 | 8.01 | –
338.15 K, x1 = 0.02 | 3.85 | –
338.15 K, x1 = 0.0301 | 4.73 | –
338.15 K, x1 = 0.0499 | 6.34 | –
338.15 K, x1 = 0.0698 | 7.08 | –
338.15 K, x1 = 0.08 | 7.57 | –
338.15 K, x1 = 0.1 | 8.15 | –
338.15 K, x1 = 0.1101 | 8.28 | –
343.15 K, x1 = 0.02 | 3.95 | –
343.15 K, x1 = 0.0301 | 4.86 | –
343.15 K, x1 = 0.0499 | 6.52 | –
343.15 K, x1 = 0.0698 | 7.29 | –
343.15 K, x1 = 0.08 | 7.8 | –
343.15 K, x1 = 0.1 | 8.43 | –
343.15 K, x1 = 0.1101 | 8.57 | –
348.15 K, x1 = 0.02 | 4.04 | –
348.15 K, x1 = 0.0301 | 4.99 | –
348.15 K, x1 = 0.0499 | 6.7 | –
348.15 K, x1 = 0.0698 | 7.51 | –
348.15 K, x1 = 0.08 | 8.04 | –
348.15 K, x1 = 0.1 | 8.73 | –
348.15 K, x1 = 0.1101 | 8.84 | –

— the CheMixHub ionic liquid set
